According to ChEMBL document CHEMBL1133054, “Noncovalent thrombin inhibitors incorporating an imidazolylethynyl P1” (Bioorg Med Chem Lett, 2000):

Columns and labels:
[1] = molecular target: Prothrombin (Homo sapiens, UniProt P00734); experiment: In vitro inhibition of human thrombin.
[2] = Peak plasma concentration (Cmax) was determined; format: ADME, organism-based; conditions: rat
[3] = molecular target: T1, Serine protease 1 (Bos taurus, UniProt P00760); experiment: Inhibitory activity against Bovine Trypsin
T1 sequence (P00760 whole entry): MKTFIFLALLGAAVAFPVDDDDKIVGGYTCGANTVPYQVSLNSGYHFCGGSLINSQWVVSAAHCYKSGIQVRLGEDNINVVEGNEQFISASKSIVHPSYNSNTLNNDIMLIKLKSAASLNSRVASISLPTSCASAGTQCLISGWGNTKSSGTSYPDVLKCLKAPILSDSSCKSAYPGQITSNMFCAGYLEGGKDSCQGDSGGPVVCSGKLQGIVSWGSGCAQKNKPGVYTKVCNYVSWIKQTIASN

[4] = Area under curve (AUC) at a dose of […] mg/kg in rats; format: ADME, organism-based; conditions: rat, in vivo, 30 mg/kg
[5] = Maximum time (Tmax) required to reach Cmax in rats; format: ADME, organism-based; conditions: rat, in vivo
[6] = Peak plasma concentration (Cmax) in rats; format: ADME, organism-based; conditions: rat
[7] = test system: Rattus norvegicus; experiment: Oral bioavailability; format: ADME, organism-based; conditions: in vivo
[8] = Area under curve at a dose of 10 mg/kg; format: ADME, organism-based; design: dose 10 mg/kg; conditions: in vivo
[9] = Plasma Clearance was determined; format: ADME, organism-based; conditions: rat
[10] = Bioavailability; format: ADME, organism-based; conditions: eutheria, in vivo
[11] = Half life (t1/2) was determined; format: ADME, organism-based; conditions: rat, in vivo
[12] = Area under curve at a dose of 30 mg/kg; format: ADME, organism-based; design: dose 30 mg/kg; conditions: rat, in vivo

Compound: CC(=O)N[C@@H](C(=O)N1CCC[C@H]1C(=O)NCC#Cc1cnc[nH]1)C(c1ccccc1)c1ccccc1
- Ki [1]: 0.208 µM
- Cmax [2]: 1600 nM

Compound: COC(=O)N[C@@H](C(=O)N1CCC[C@H]1C(=O)NCC#Cc1c[nH]cn1)C(C1CCCCC1)C1CCCCC1
- Ki [1]: 0.015 µM
- Ki [3]: 30 µM

Compound: NS(=O)(=O)N[C@@H](C(=O)N1CCC[C@H]1C(=O)NCC#Cc1c[nH]cn1)C(c1ccccc1)c1ccccc1
- Ki [1]: 0.0008 µM
- Ki [3]: 18 µM

Compound: CC(C)(C)OC(=O)N[C@@H](C(=O)N1CCC[C@H]1C(=O)NCC#Cc1c[nH]cn1)C(c1ccccc1)c1ccccc1
- AUC [4]: 29 µM·h
- Tmax [5]: 1 h
- Ki [3]: 50 µM
- Cmax [6]: 14600 nM

Compound: CC(C)(C)OC(=O)N[C@H](Cc1ccccc1)C(=O)N1CCC[C@H]1C(=O)NCC#Cc1ccncc1
- Ki [1]: > 20 µM

Compound: CC(C)(C)OC(=O)N[C@H](Cc1ccccc1)C(=O)N1CCC[C@H]1C(=O)NCC#Cc1cn[nH]c1
- Ki [1]: 5.4 µM

Compound: O=C(O)CN[C@@H](C(=O)N1CCC[C@H]1C(=O)NCC#Cc1cnc[nH]1)C(c1ccccc1)c1ccccc1
- Ki [1]: 0.044 µM
- Cmax [2]: 1600 nM
- Ki [3]: 47 µM

Compound: O=C(NCC#Cc1cnc[nH]1)[C@@H]1CCCN1C(=O)[C@H](NS(=O)(=O)Cc1ccccc1)C(c1ccccc1)c1ccccc1
- Ki [1]: 0.003 µM
- Ki [3]: 24 µM

Compound: NC1CCC(CNC(=O)[C@@H]2CCCN2C(=O)[C@H](N)C(c2ccccc2)c2ccccc2)CC1 (stereo not given in full)
- F [7]: Oral bioavailability

Compound: CC(C)(C)OC(=O)N[C@@H](C(=O)N1CCC[C@H]1C(=O)NCC#Cc1cnc[nH]1)C(C1CCCCC1)C1CCCCC1
- Ki [1]: 0.029 µM
- Ki [3]: 30 µM

Compound: COC(=O)N[C@@H](C(=O)N1CCC[C@H]1C(=O)NCC#Cc1c[nH]cn1)C(c1ccccc1)c1ccccc1
- AUC [8]: 26 µM·h
- clearance [9]: 12.8 mL/min/kg
- Ki [1]: 0.014 µM
- Tmax [5]: 1 h
- bioavailability [10]: 58%
- half-life [11]: 0.667 h
- Cmax [2]: 23600 nM
- Ki [3]: 24 µM
- AUC [12]: 46 µM·h

Compound: CN(C(=O)[C@H](Cc1ccc(C(=N)NN)cc1)NS(=O)(=O)c1ccc2ccccc2c1)C1CCCC1
- Ki [3]: 33 µM

Compound: NC1CCC(CNC(=O)[C@@H]2CCCN2C(=O)[C@H](NS(=O)(=O)Cc2ccccc2)C(c2ccccc2)c2ccccc2)CC1 (stereo not given in full)
- F [7]: Oral bioavailability

Compound: Cn1cncc1C#CCNC(=O)[C@@H]1CCCN1C(=O)[C@@H](Cc1ccccc1)NC(=O)OC(C)(C)C
- Ki [1]: 5.5 µM

Compound: CS(=O)(=O)N[C@@H](C(=O)N1CCC[C@H]1C(=O)NCC#Cc1c[nH]cn1)C(c1ccccc1)c1ccccc1
- Ki [1]: 0.0026 µM
- Ki [3]: 14 µM

Compound: CC(C)(C)OC(=O)N[C@H](Cc1ccccc1)C(=O)N1CCC[C@H]1C(=O)NCC#Cc1ccc(N)nc1
- Ki [1]: > 20 µM

Compound: CC(C)(C)OC(=O)N[C@H](Cc1ccccc1)C(=O)N1CCC[C@H]1C(=O)NCC#Cc1cnc[nH]1
- Ki [1]: 1.2 µM

Compound: O=C(O)CN[C@H](CC1CCCCC1)C(=O)N1CCC[C@H]1C(=O)NCC#Cc1cnc[nH]1
- Ki [1]: 0.48 µM
- Cmax [2]: 1600 nM

Compound: N[C@@H](C(=O)N1CCC[C@H]1C(=O)NCC#Cc1cnc[nH]1)C(c1ccccc1)c1ccccc1
- Ki [1]: 0.012 µM
- Ki [3]: 25 µM
